The source of these data is PubChem BioAssay (NCI).

Test systems include UACC-62 melanoma; OVCAR-3 ovarian; OVCAR-8 ovarian; MDA-MB-231 breast; CCRF-CEM leukemia; MDA-MB-435; HL-60(TB) leukemia; OVCAR-4 ovarian; A498 renal; SNB-19 CNS.
What all share (assay): DTP human tumour cell line panel, 48 h

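Dose response: 5 concentrations. Exposure: 48 h. Format: 96-well plates. Endpoint: linear interpolation; highest concentration if not reached. TGI marks complete inhibition of growth.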 Bounds are passed on as bounds.

Regarding `COc1nc2ncc([C@@H](O)[C@H](O)CO)nc2c(=O)[nH]1`, the TGI with UACC-62 melanoma, in the assay on OVCAR-3 ovarian, in the assay with OVCAR-8 ovarian, with MDA-MB-231 breast, in the assay with CCRF-CEM leukemia and in the assay on MDA-MB-435 was more than 100 µM throughout. In addition, the TGI in the assay with HL-60(TB) leukemia, in the assay with OVCAR-4 ovarian, in the assay on A498 renal and in the assay on SNB-19 CNS was more than 100 µM in each case.

For the molecule `CSC(=N/N=C(\C)c1ccc(S(=O)(=O)N(C)c2ccccc2)cc1)SC`, the TGI – broadly, the concentration giving total growth inhibition – was more than 100 µM in the assay with UACC-62 melanoma; more than 100 µM in the assay on OVCAR-3 ovarian; more than 100 µM in the assay with OVCAR-8 ovarian; more than 100 µM in the assay on MDA-MB-231 breast; more than 95.2 µM in the assay with CCRF-CEM leukemia; more than 100 µM in the assay on MDA-MB-435. The TGI in the assay on HL-60(TB) leukemia, in the assay with OVCAR-4 ovarian, in the assay on A498 renal and in the assay with SNB-19 CNS was more than 100 µM in each case.
